Measurements taken from ChEMBL document CHEMBL5532665 (J Med Chem, 2024).

Biological target: Mu-type opioid receptor (Homo sapiens, UniProt P35372)
Assay: Agonist activity at human MOR expressed in CHO-K1 cells co-expressing G-alpha15 by calcium mobilization assay relative to control
Type: functional, cell-based
Details: filed as agonist

Chain of Mu-type opioid receptor (P35372 whole entry): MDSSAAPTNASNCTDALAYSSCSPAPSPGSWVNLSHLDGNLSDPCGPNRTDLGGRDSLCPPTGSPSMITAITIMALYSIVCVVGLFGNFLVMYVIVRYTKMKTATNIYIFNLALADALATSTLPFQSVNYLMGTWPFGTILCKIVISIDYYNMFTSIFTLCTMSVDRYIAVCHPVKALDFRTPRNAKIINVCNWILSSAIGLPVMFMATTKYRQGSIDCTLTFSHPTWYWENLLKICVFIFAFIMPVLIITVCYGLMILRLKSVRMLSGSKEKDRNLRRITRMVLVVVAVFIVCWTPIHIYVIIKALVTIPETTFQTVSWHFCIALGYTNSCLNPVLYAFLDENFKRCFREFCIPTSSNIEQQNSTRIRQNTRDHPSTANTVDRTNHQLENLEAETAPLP

Structure (SMILES) | Emax
NC(=O)[C@@H]1CCCN1C(=O)[C@H]1CC(=O)NCCCC[C@@H](NC(=O)[C@@H](N)Cc2ccc(O)cc2)C(=O)NCC(=O)N[C@@H](CC2CCCCC2)C(=O)N1 | 105%
Cc1ccc(C[C@@H]2NC(=O)CNC(=O)[C@H](NC(=O)[C@@H](N)Cc3ccc(O)cc3)CCCCNC(=O)C[C@H](C(=O)N3CCC[C@H]3C(N)=O)NC2=O)cc1 | 109%
NC(=O)[C@@H]1CCCN1C(=O)[C@H]1CC(=O)NCCCC[C@@H](NC(=O)[C@@H](N)Cc2ccc(O)cc2)C(=O)NCCC(=O)N[C@@H](Cc2ccccc2)C(=O)N1 | 95.9%

Biological target: Kappa-type opioid receptor (Homo sapiens, UniProt P41145)
Sequence (P41145 whole entry): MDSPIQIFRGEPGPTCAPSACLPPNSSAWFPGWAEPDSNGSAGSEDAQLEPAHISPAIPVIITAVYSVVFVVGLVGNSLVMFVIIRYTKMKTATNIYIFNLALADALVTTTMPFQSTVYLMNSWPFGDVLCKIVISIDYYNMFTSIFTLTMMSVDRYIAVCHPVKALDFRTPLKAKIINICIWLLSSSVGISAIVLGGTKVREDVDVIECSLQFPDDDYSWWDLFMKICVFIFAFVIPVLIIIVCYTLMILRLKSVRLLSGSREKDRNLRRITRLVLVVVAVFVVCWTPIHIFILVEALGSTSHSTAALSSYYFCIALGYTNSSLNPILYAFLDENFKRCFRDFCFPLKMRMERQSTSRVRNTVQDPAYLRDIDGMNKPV
Assay: Agonist activity at human KOR expressed in CHO-K1 cells co-expressing G-alpha15 by calcium mobilization assay relative to control
Type: functional, cell-based
Details: filed as agonist

Structure (SMILES) | Emax
Cc1ccc(C[C@@H]2NC(=O)CNC(=O)[C@H](NC(=O)[C@@H](N)Cc3ccc(O)cc3)CCCCNC(=O)C[C@H](C(=O)N3CCC[C@H]3C(N)=O)NC2=O)cc1 | 66.7%

Biological target: Delta-type opioid receptor (Homo sapiens, UniProt P41143)
Sequence (P41143 whole entry): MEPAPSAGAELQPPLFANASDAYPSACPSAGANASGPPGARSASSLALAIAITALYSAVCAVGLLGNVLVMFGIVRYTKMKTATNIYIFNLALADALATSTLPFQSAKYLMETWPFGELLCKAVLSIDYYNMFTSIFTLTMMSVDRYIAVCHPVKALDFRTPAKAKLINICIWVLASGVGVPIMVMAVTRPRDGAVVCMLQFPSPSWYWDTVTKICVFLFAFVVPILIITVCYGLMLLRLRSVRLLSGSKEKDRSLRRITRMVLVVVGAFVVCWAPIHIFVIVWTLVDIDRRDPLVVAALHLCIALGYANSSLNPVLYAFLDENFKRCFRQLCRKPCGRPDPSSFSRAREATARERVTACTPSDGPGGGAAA
Assay: Agonist activity at human DOR expressed in CHO-K1 cells co-expressing G-alpha15 by calcium mobilization assay relative to control
Type: functional, cell-based
Details: filed as agonist

Structure (SMILES) | Emax
NC(=O)[C@@H]1CCCN1C(=O)[C@H]1CC(=O)NCCCC[C@@H](NC(=O)[C@@H](N)Cc2ccc(O)cc2)C(=O)NCC(=O)N[C@@H](CC2CCCCC2)C(=O)N1 | 54.4%
Cc1ccc(C[C@@H]2NC(=O)CNC(=O)[C@H](NC(=O)[C@@H](N)Cc3ccc(O)cc3)CCCCNC(=O)C[C@H](C(=O)N3CCC[C@H]3C(N)=O)NC2=O)cc1 | 115%

Tested on: Mus musculus
Assay: Antinociceptive activity in Kunming mouse model assessed as latency of tail withdrawal at 1416 nmol/kg, sc measured for 10 mins by tail-flick test relative to control
Type: functional
Details: not given

Structure (SMILES) | MPE
NC(=O)[C@H]1CCCN1C(=O)[C@@H]1CC(=O)NCCCC[C@@H](NC(=O)[C@@H](N)Cc2ccc(O)cc2)C(=O)NCC(=O)N[C@@H](Cc2ccccc2)C(=O)N1 | 65.5%
NC(=O)[C@H]1CCCN1C(=O)[C@@H]1CC(=O)NCCCC[C@@H](NC(=O)[C@@H](N)Cc2ccc(O)cc2)C(=O)NCC(=O)N(Cc2ccccc2)CC(=O)N1 | 46.8%

Tested on: Mus musculus
Assay: Antinociceptive activity in Kunming mouse model assessed as latency of tail withdrawal at 138.8 nmol/kg, sc measured for 10 mins by tail-flick test relative to control
Type: functional
Details: not given

Structure (SMILES) | MPE
Cc1ccc(C[C@@H]2NC(=O)CNC(=O)[C@H](NC(=O)[C@@H](N)Cc3ccc(O)cc3)CCCCNC(=O)C[C@@H](C(=O)N3CCC[C@@H]3C(N)=O)NC2=O)cc1 | 44.8%
NC(=O)[C@H]1CCCN1C(=O)[C@@H]1CC(=O)NCCCC[C@@H](NC(=O)[C@@H](N)Cc2ccc(O)cc2)C(=O)NCCC(=O)N[C@@H](Cc2ccccc2)C(=O)N1 | 45.6%

Tested on: Mus musculus
Assay: Antinociceptive activity in Kunming mouse model assessed as latency of tail withdrawal at 13.9 nmol/kg, sc measured for 10 mins by tail-flick test relative to control
Type: functional
Details: not given

Structure (SMILES) | MPE
CN1C(=O)CNC(=O)[C@H](NC(=O)[C@@H](N)Cc2ccc(O)cc2)CCCCNC(=O)C[C@@H](C(=O)N2CCC[C@@H]2C(N)=O)NC(=O)[C@@H]1Cc1ccccc1 | 81.9%

Tested on: Mus musculus
Assay: Antinociceptive activity in Kunming mouse model assessed as latency of tail withdrawal at 1416 nmol/kg, sc measured for 30 mins by tail-flick test relative to control
Type: functional
Details: 0.5 h

Structure (SMILES) | MPE
NC(=O)[C@H]1CCCN1C(=O)[C@@H]1CC(=O)NCCCC[C@@H](NC(=O)[C@@H](N)Cc2ccc(O)cc2)C(=O)NCC(=O)N[C@@H](Cc2ccccc2)C(=O)N1 | 91.2%
NC(=O)[C@H]1CCCN1C(=O)[C@@H]1CC(=O)NCCCC[C@@H](NC(=O)[C@@H](N)Cc2ccc(O)cc2)C(=O)NCC(=O)N(Cc2ccccc2)CC(=O)N1 | 91.4%

Tested on: Mus musculus
Assay: Antinociceptive activity in Kunming mouse model assessed as latency of tail withdrawal at 138.8 nmol/kg, sc measured for 30 mins by tail-flick test relative to control
Type: functional
Details: 0.5 h

Structure (SMILES) | MPE
Cc1ccc(C[C@@H]2NC(=O)CNC(=O)[C@H](NC(=O)[C@@H](N)Cc3ccc(O)cc3)CCCCNC(=O)C[C@@H](C(=O)N3CCC[C@@H]3C(N)=O)NC2=O)cc1 | 95.6%
NC(=O)[C@H]1CCCN1C(=O)[C@@H]1CC(=O)NCCCC[C@@H](NC(=O)[C@@H](N)Cc2ccc(O)cc2)C(=O)NCCC(=O)N[C@@H](Cc2ccccc2)C(=O)N1 | 92.6%

Tested on: Mus musculus
Assay: Antinociceptive activity in Kunming mouse model assessed as latency of tail withdrawal at 13.9 nmol/kg, sc measured for 30 mins by tail-flick test relative to control
Type: functional
Details: 0.5 h

Structure (SMILES) | MPE
CN1C(=O)CNC(=O)[C@H](NC(=O)[C@@H](N)Cc2ccc(O)cc2)CCCCNC(=O)C[C@@H](C(=O)N2CCC[C@@H]2C(N)=O)NC(=O)[C@@H]1Cc1ccccc1 | 93.8%

Tested on: Mus musculus
Assay: Antinociceptive activity in Kunming mouse model assessed as latency of tail withdrawal at 1416 nmol/kg, sc measured for 60 mins by tail-flick test relative to control
Type: functional
Details: 1 h

Structure (SMILES) | MPE
NC(=O)[C@H]1CCCN1C(=O)[C@@H]1CC(=O)NCCCC[C@@H](NC(=O)[C@@H](N)Cc2ccc(O)cc2)C(=O)NCC(=O)N[C@@H](Cc2ccccc2)C(=O)N1 | 63.7%
NC(=O)[C@H]1CCCN1C(=O)[C@@H]1CC(=O)NCCCC[C@@H](NC(=O)[C@@H](N)Cc2ccc(O)cc2)C(=O)NCC(=O)N(Cc2ccccc2)CC(=O)N1 | 76.3%

Tested on: Mus musculus
Assay: Antinociceptive activity in Kunming mouse model assessed as latency of tail withdrawal at 138.8 nmol/kg, sc measured for 60 mins by tail-flick test relative to control
Type: functional
Details: 1 h

Structure (SMILES) | MPE
Cc1ccc(C[C@@H]2NC(=O)CNC(=O)[C@H](NC(=O)[C@@H](N)Cc3ccc(O)cc3)CCCCNC(=O)C[C@@H](C(=O)N3CCC[C@@H]3C(N)=O)NC2=O)cc1 | 67.1%
NC(=O)[C@H]1CCCN1C(=O)[C@@H]1CC(=O)NCCCC[C@@H](NC(=O)[C@@H](N)Cc2ccc(O)cc2)C(=O)NCCC(=O)N[C@@H](Cc2ccccc2)C(=O)N1 | 71%

Tested on: Mus musculus
Assay: Antinociceptive activity in Kunming mouse model assessed as latency of tail withdrawal at 13.9 nmol/kg, sc measured for 60 mins by tail-flick test relative to control
Type: functional
Details: 1 h

Structure (SMILES) | MPE
CN1C(=O)CNC(=O)[C@H](NC(=O)[C@@H](N)Cc2ccc(O)cc2)CCCCNC(=O)C[C@@H](C(=O)N2CCC[C@@H]2C(N)=O)NC(=O)[C@@H]1Cc1ccccc1 | 93.9%

Tested on: Mus musculus
Assay: Antinociceptive activity in Kunming mouse model assessed as latency of tail withdrawal at 1416 nmol/kg, sc measured for 120 mins by tail-flick test relative to control
Type: functional
Details: 2 h

Structure (SMILES) | MPE
NC(=O)[C@H]1CCCN1C(=O)[C@@H]1CC(=O)NCCCC[C@@H](NC(=O)[C@@H](N)Cc2ccc(O)cc2)C(=O)NCC(=O)N[C@@H](Cc2ccccc2)C(=O)N1 | 33.6%
NC(=O)[C@H]1CCCN1C(=O)[C@@H]1CC(=O)NCCCC[C@@H](NC(=O)[C@@H](N)Cc2ccc(O)cc2)C(=O)NCC(=O)N(Cc2ccccc2)CC(=O)N1 | 7.7%

Tested on: Mus musculus
Assay: Antinociceptive activity in Kunming mouse model assessed as latency of tail withdrawal at 138.8 nmol/kg, sc measured for 120 mins by tail-flick test relative to control
Type: functional
Details: 2 h

Structure (SMILES) | MPE
Cc1ccc(C[C@@H]2NC(=O)CNC(=O)[C@H](NC(=O)[C@@H](N)Cc3ccc(O)cc3)CCCCNC(=O)C[C@@H](C(=O)N3CCC[C@@H]3C(N)=O)NC2=O)cc1 | 39.2%
NC(=O)[C@H]1CCCN1C(=O)[C@@H]1CC(=O)NCCCC[C@@H](NC(=O)[C@@H](N)Cc2ccc(O)cc2)C(=O)NCCC(=O)N[C@@H](Cc2ccccc2)C(=O)N1 | 40.6%

Tested on: Mus musculus
Assay: Antinociceptive activity in Kunming mouse model assessed as latency of tail withdrawal at 13.9 nmol/kg, sc measured for 120 mins by tail-flick test relative to control
Type: functional
Details: 2 h

Structure (SMILES) | MPE
CN1C(=O)CNC(=O)[C@H](NC(=O)[C@@H](N)Cc2ccc(O)cc2)CCCCNC(=O)C[C@@H](C(=O)N2CCC[C@@H]2C(N)=O)NC(=O)[C@@H]1Cc1ccccc1 | 75.3%

Tested on: Mus musculus
Assay: Antinociceptive activity in Kunming mouse model administered subcutaneously by tail-flick test
Type: functional
Details: route sc

Structure (SMILES) | ED50
CN1C(=O)CNC(=O)[C@H](NC(=O)[C@@H](N)Cc2ccc(O)cc2)CCCCNC(=O)C[C@@H](C(=O)N2CCC[C@@H]2C(N)=O)NC(=O)[C@@H]1Cc1ccccc1 | 0.0006 µmol/kg

Tested on: Mus musculus
Assay: Antinociceptive activity in Kunming mouse model administered orally by tail-flick test
Type: functional
Details: route po

Structure (SMILES) | ED50
CN1C(=O)CNC(=O)[C@H](NC(=O)[C@@H](N)Cc2ccc(O)cc2)CCCCNC(=O)C[C@@H](C(=O)N2CCC[C@@H]2C(N)=O)NC(=O)[C@@H]1Cc1ccccc1 | 0.0003 µmol/kg

Tested on: Mus musculus
Assay: Antinociceptive activity in Kunming mouse model administered subcutaneously measured for 5 to 15 mins by acetic acid-induced writhing test
Type: functional
Details: route sc, time 5-15 min

Structure (SMILES) | ED50
CN1C(=O)CNC(=O)[C@H](NC(=O)[C@@H](N)Cc2ccc(O)cc2)CCCCNC(=O)C[C@@H](C(=O)N2CCC[C@@H]2C(N)=O)NC(=O)[C@@H]1Cc1ccccc1 | 0.0025 µmol/kg

Tested on: Mus musculus
Assay: Inhibition of gastrointestinal motility in fasted Kunming mouse model treated subcutaneously for 15 mins followed by charcoal-gum arabic treatment measured after 30 mins
Type: functional
Details: 0.75 h, route sc, time 45 min

Structure (SMILES) | ED50
CN1C(=O)CNC(=O)[C@H](NC(=O)[C@@H](N)Cc2ccc(O)cc2)CCCCNC(=O)C[C@@H](C(=O)N2CCC[C@@H]2C(N)=O)NC(=O)[C@@H]1Cc1ccccc1 | 0.0326 µmol/kg
